Values after ≈ are worked out from the molar mass of the structure shown. Like-named read-outs stand apart in the source and are kept apart here.
How the values were obtained:
Zebrafish embryos = conditions: cited from earlier work; for LOEC (body length, GnRH3 neurons, reproductive neuroendocrine-related genes and hormones) / NOEC (body length, GnRH3 neurons, reproductive neuroendocrine-related genes and hormones): 120h-exposure, ref Qiu et al. (2021); for LC10(96h): ref Blanc et al. (2019)
[1] = test system: tg(cyp19a1b:GFP) zebrafish embryos; assay: Refined Fish Embryo Acute Toxicity test (FET, OECD TG 236): mortality; type: in vivo, zebrafish (Danio rerio); conditions: nominal, brackets 95% CI
Description: (§1) Exposures were carried out in presaturated 24-well plates containing one embryo per well in 2 mL of test solution. The exposure was performed under semistatic conditions, with daily renewal of the test solution. The concentration ranges tested, along with a control with the same percentage of solvent alone, are recapitulated in Table S1. All exposure concentrations are reported as nominal. During the time course of the refined FET tests, embryos were observed after 8 h (coagulation), 24 h (lack of somite formation and nondetachment of the tail), and 48, 72, and 96 h of exposure (nondetection of the heartbeat). […] Moreover, hatching rate and nonlethal developmental effects (i.e., yolk deformity, growth retardation, spontaneous movement, edema, blood tail circulation, heart rate, pigmentation, head and tail/spinal malformations, and hemorrhage) were monitored daily. Tail/spinal malformations included lordosis, kyphosis, scoliosis, and reduced tail length.
(§2) This analysis considered all nonlethal developmental end points monitored in the refined FET assay (see above), except effects on hatching, pigmentation, spontaneous movement, and blood circulation. A teratogenic index (TI) was then calculated as the ratio LC50/EC50.
(§3) Baseline toxicity and experimental FET LC50 values were used to calculate toxic ratios (TR = predicted baseline toxicity LC50/experimental FET LC50). Compounds with TR < 10 were considered as baseline toxicants.

zebrafish ERβ2 (zfERβ2) = zebrafish ERβ2 (zfERβ2) (Danio rerio, UniProt Q7ZU32); assay: ZELH-zfERβ2 luciferase reporter gene assay; type: cell-based; conditions: read-out: maximal efficacy
zebrafish ERβ2 (zfERβ2), sequence (Q7ZU32 1-553): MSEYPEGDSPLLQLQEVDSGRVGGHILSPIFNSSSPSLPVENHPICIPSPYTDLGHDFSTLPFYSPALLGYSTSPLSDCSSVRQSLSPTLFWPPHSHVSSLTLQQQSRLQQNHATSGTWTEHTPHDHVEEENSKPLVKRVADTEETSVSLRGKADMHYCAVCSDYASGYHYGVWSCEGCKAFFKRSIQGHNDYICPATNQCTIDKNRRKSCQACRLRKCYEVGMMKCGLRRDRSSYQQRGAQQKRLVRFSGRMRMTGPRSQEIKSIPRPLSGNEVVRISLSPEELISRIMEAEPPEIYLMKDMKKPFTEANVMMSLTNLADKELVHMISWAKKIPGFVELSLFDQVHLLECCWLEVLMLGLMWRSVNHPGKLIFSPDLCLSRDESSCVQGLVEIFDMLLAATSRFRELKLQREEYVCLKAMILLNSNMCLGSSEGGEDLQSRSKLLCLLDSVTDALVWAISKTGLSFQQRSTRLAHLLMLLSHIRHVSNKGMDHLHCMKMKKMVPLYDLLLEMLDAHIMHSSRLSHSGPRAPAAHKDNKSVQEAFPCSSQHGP
Description: The ZELH-zfERs reporter cell line was previously established after a two-step stable transfection of the zebrafish hepatic cell line ZFL with the luciferase gene under the control of ERE (yielding the ZELH cell line that expresses no functional ER) and the zebrafish ER subtype β2 (yielding the ZELH-zfERβ2 cell line). Cells were cultured, exposed to chemicals for 72 h, and measured for luciferase activity exactly as previously described. , For each chemical, serial dilutions were prepared in DMSO and tested in three independent experiments. The final DMSO concentration in the culture medium was always 0.1% v/v. All tested concentrations refer to nominal concentrations.

[2] = test system: tg(cyp19a1b:GFP) zebrafish embryos; assay: Refined FET: developmental effects / malformations; type: in vivo, zebrafish (Danio rerio); conditions: nominal; for EC50: Danio rerio, end of 96 h exposure, read-out: EC50 malformations (cumulative sublethal end points); for LOEC deformity of yolk: at least 10% of embryos affected
Description: as §1, §2

[3] = Refined Fish Embryo Acute Toxicity test (FET, OECD TG 236): mortality; type: in vivo, zebrafish (Danio rerio); conditions: tg(cyp19a1b:GFP), zebrafish, in vivo, other: waterborne exposure of embryos in test solution, LC50 (96h) experimental (FET test), nominal, brackets 95% CI
Description: as §1, §2, §3

[4] = test system: cyp19a1b:GFP (brain aromatase) in tg(cyp19a1b:GFP) zebrafish embryos; assay: EASZY assay (OECD TG 250): GFP induction; type: in vivo, zebrafish (Danio rerio); conditions: for EC50: read-out: EASZY relative EC50, nominal
Description: The tests were conducted according to OECD TG 250. Newly fertilized cyp19a1b-GFP eggs were transferred to glass crystallizing dishes and exposed for 96 h in a humidified climate chamber (27 ± 2 °C) under semistatic conditions with a total renewal of the test solutions each day. Each condition consisted of three crystallizing dishes, each containing 7 embryos and 15 mL of test medium. Embryos were exposed to a range of nonlethal concentrations of chemicals as determined previously based on the refined FET assays. The tested concentration ranges of bisphenols, along with a control with the same percentage of solvent alone, are summarized in Table S2. All exposure concentrations are reported as nominal. At the end of exposure, transgenic zebrafish embryos were collected for fluorescence imaging to quantify GFP intensity. At the end of the experiments, all living zebrafish embryos were euthanized as described above. […] ICI was added together with bisphenols from 0 to 4 dpf (days post fertilization). […] In all coexposure experiments, the final DMSO concentration was 0.02% (v/v).
For fluorescence imaging, GFP fold induction was expressed as mean ± SEM, and values were compared to the DMSO control using one-way ANOVA followed by Dunnett’s posthoc test. […]

hERβ [5] = test system: hERβ; parameters: method as in Grimaldi et al.; conditions: HELN-hERβ; ref Grimaldi et al.; cited from earlier work
hERβ [6] = test system: hERβ; parameters: method as in Pelch et al.; conditions: HepG2-hERβ, ref Pelch et al., cited from earlier work; for EC50: NA = not active
Adult Zebrafish = conditions: ref Ren et al. (2017); cited from earlier work
[7] = ref Adamovsky et al.; cited from earlier work
[8] = test system: cyp19a1b:GFP (brain aromatase) in tg(cyp19a1b:GFP) zebrafish embryos; assay: Refined FET: GFP fluorescence imaging at 96 h; type: in vivo, zebrafish (Danio rerio); conditions: nominal
Description: as §1, with “All the tests were conducted according to OECD TG 236, except for the temperature (27 ± 2 °C), which was aligned with the OECD TG 250 (see below). Exposures” for “Exposures”, “length. […] To do so, each embryo was photographed and analyzed as described by Brion et al. At the end of the refined FET assay, all living zebrafish embryos were euthanized using a protocol combining anesthesia induced by 168 mg/L tricaine (Pharmaq, delivered from Vetofish, Chateauneuf-les-Martigues, France) and the addition of bleach solution (sodium hypochlorite 6.15%; 1 volume of bleach to 5 volumes of water) to induce death.” for “length.”
For fluorescence imaging, GFP fold induction was expressed as mean ± SEM, and values were compared to the DMSO control using one-way ANOVA followed by Dunnett’s posthoc test.

[9] = zebrafish embryos, ref Gao et al.
[10] = zebrafish embryos, ref Ren et al. (2017)
[11] = 150h exposure, ref Song et al. (2014)

| Structure (SMILES) | Emax (zebrafish ERβ2 (zfERβ2)) [%] | EC50 [2] [µg/mL] | LOEC edema [2] [mg/L] | LOEC head malformations [2] [mg/L] | LOEC heart rate disruption [2] [mg/L] | LOEC hemorrhage [2] [mg/L] | LOEC no blood tail circulation [2] [mg/L] | LOEC tail/spinal malformations [2] [mg/L] | LOEC deformity of yolk [2] [mg/L] | LC50 at 96 h [3] [µg/mL] | EC50 (hERβ [5]) [nM] | maximal efficacy (hERβ [5]) [%] | maximal efficacy (hERβ [6]) [%] | Log Kow [7] | also measured |
| --- | --- | --- | --- | --- | --- | --- | --- | --- | --- | --- | --- | --- | --- | --- | --- |
| Nc1ccc(Cl)c(Cl)c1 [3,4-DCA, reference compound] |  |  |  |  |  |  |  |  |  |  |  |  |  |  | mean LC50 of FET positive control (Zebrafish embryos; ref OECD TG 236 validation report): 2.7 µg/mL; LC50 (96h) experimental (FET test) [1]: 2.46 µg/mL (≈ 15.2 µM) |
| Oc1ccc(Oc2ccc(O)cc2)cc1 [4,4’-ODP, 4-(4-hydroxyphenoxy)phenol] | 61 | 0.35 (≈ 1.73 µM) | 0.99 | 2.96 | 2.96 | 0.99 | 8.89 | 2.96 | 2.96 | 17.1 (≈ 84.3 µM) | 3060 | 72 |  |  | LOEC growth retardation [2]: 8.89 mg/L; LOEC no/Less pigmentation [2]: 0.99 mg/L; EC50 ([4]; Danio rerio, 96 h, 96 h): 0.363 µg/mL (≈ 1.8 µM) |
| CCC(C)(c1ccc(O)cc1)c1ccc(O)cc1 [BPB, 4-[2-(4-hydroxyphenyl)butan-2-yl] phenol] | 66 | 5.4 (≈ 22.3 µM) | 5 | 10 | 10 | 10 |  |  | 10 | 6.85 (≈ 28.3 µM) | 128 | 60 | 56 | 3.95 | LOEC (body length, GnRH3 neurons, reproductive neuroendocrine-related genes and hormones) (Zebrafish embryos): 100 µg/L; NOEC (body length, GnRH3 neurons, reproductive neuroendocrine-related genes and hormones) (Zebrafish embryos): 1 µg/L; NOEC (developmental toxicity) (Zebrafish embryos; Wildtype (AB/TL), 1-6 dpf static + 6-9 dpf semistatic, ref Catron et al. (2018; 2019)): 5.1 µM; LC50 (Zebrafish embryos; read-out: LC50(96h), Wildtype AB, 96h-exposure, ref Arrokhman et al. (2023)): 28000 nM; LC50 (96h) literature (Zebrafish embryos; zebrafish embryos, ref Arrokhman et al.): 6.79 µg/mL (≈ 28 µM); LC50 (96h) literature (Zebrafish embryos; [9]): 3.52 µg/mL (≈ 14.5 µM); Body length LOEC (Zebrafish embryos; [10]): 2 mg/L; Body length NOEC (Zebrafish embryos; [10]): 1 mg/L; LC50(24h) (Zebrafish embryos; [10]): 7.18 µg/mL (≈ 29.6 µM); LC50(48h) (Zebrafish embryos; [10]): 6.54 µg/mL (≈ 27 µM); LC50(72h) (Zebrafish embryos; [10]): 4.53 µg/mL (≈ 18.7 µM); LC50 (96h) literature (Zebrafish embryos; zebrafish embryos, ref Ren et al.): 3.88 µg/mL (≈ 16 µM); LC50(24h) (Adult Zebrafish): 5.07 µg/mL (≈ 20.9 µM); LC50(48h) (Adult Zebrafish): 4.64 µg/mL (≈ 19.1 µM); LC50(72h) (Adult Zebrafish): 4.15 µg/mL (≈ 17.1 µM); LC50(96h) (Adult Zebrafish): 4.15 µg/mL (≈ 17.1 µM); LOEC no spontaneous movement [2]: 10 mg/L; minimal effective concentration ([4]; Danio rerio, 96 h, read-out: EASZY LOEC (GFP induction), nominal): 0.312 µg/mL |
| Cc1cc(C(C)(C)c2ccc(O)c(C)c2)ccc1O [BPC, 4-[2-(4-hydroxy-3-methylphenyl)propan-2-yl]-2-methylphenol] | 66 | 2.77 (≈ 10.8 µM) |  |  | 8.53 | 8.53 | 8.53 | 8.53 |  | 4.92 (≈ 19.2 µM) |  |  |  | 4.32 | LC50 (96h) literature (Zebrafish embryos; [9]): 2.22 µg/mL (≈ 8.66 µM) |
| O=S(=O)(c1ccc(O)cc1)c1ccc(O)cc1 [BPS, 4-(4-hydroxyphenyl)sulfonylphenol] | 85 |  |  |  |  |  |  |  | 400 |  | 1720 | 100 | 77 |  | EC50 ([8]; Danio rerio, Hill model, read-out: EC50 GFP induction in refined FET): 35.7 µg/mL (≈ 143 µM); EC10 GFP induction in refined FET [8]: 16.6 µg/mL (≈ 66.3 µM); EC20 GFP induction in refined FET [8]: 22.0 µg/mL (≈ 87.9 µM); LC10(96h) (Zebrafish embryos; 4-days exposure): > 100 µg/mL; Hatching success EC50(72h) (Zebrafish embryos; 4-days exposure, ref Moreman et al. (2017)): 155 (15) mg/L; LOEC (body length, GnRH3 neurons, reproductive neuroendocrine-related genes and hormones) (Zebrafish embryos): 100 µg/L; NOEC (body length, GnRH3 neurons, reproductive neuroendocrine-related genes and hormones) (Zebrafish embryos): 1 µg/L; LC10(96h) (Zebrafish embryos): > 400000 nM; Body length LOEC (Zebrafish embryos; [10]): 350 mg/L; Body length NOEC (Zebrafish embryos; [10]): 300 mg/L; Hatching rate EC50(120h) (Zebrafish embryos; [10]): 200 µg/mL; Heart rate EC50(78h) (Zebrafish embryos; [10]): 318 µg/mL; EC50 (hERβ [6]): 2100 nM; EC50 ([4]; Danio rerio, 96 h, 96 h): 62.7 µg/mL (≈ 251 µM) |
| O=S(=O)(c1ccc(O)cc1)c1ccc(OCc2ccccc2)cc1 [BPS-MPE, 4-(4-phenylmethoxyphenyl) sulfonylphenol] |  | 3.45 (≈ 10.1 µM) |  |  |  |  |  |  |  | 3.17 (≈ 9.31 µM) |  |  | 4 | 4.18 |  |
| CC(C)(c1cc(Cl)c(O)c(Cl)c1)c1cc(Cl)c(O)c(Cl)c1 [TCBPA, Tetrachloro-bisphenol A] | 42 | 0.48 (≈ 1.31 µM) | 0.5 | 1 | 1 |  | 1 | 0.5 | 1 | 0.88 (≈ 2.4 µM) | 68000 | 21 | 15 | 6.19 | concentrations causing lethal effects (Zebrafish embryos; 3-6 dpf exposure, ref Riu et al. (2014)): above 1 µM; LC50(144h) (Zebrafish embryos; [11]): 0.75 µg/mL (≈ 2.05 µM); LOAELs (Zebrafish embryos; [11]): 1 mg/L; LC50 (96h) literature (Zebrafish embryos; zebrafish embryos, ref Song et al.): ≈ 1 mg/L; LOEC no spontaneous movement [2]: 2 mg/L; LOEC no/Less pigmentation [2]: 1 mg/L; estrogenic activity in EASZY assay ([4]; zebrafish, in vivo): absence of estrogenic activity |

Reference: paper PMC13130965, “An Integrated Approach Combining Regulatory Tests in tg(cyp19a1b:GFP) Zebrafish Embryos to Assess Toxicity, Developmental Effects, and Estrogenic Activity of Chemicals: A Case Study with Bisphenol A Substitutes” (Environmental Science & Technology, 2026)
